The target in this test is T1, recombinant DLL3 ectodomain (rhDLL3-Fc) (Homo sapiens, UniProt Q9NYJ7).
T1 construct: The recombinant DLL3 ectodomain (rhDLL3-Fc) was biotinylated; Fc
T1 sequence (Q9NYJ7 27-492 limits assumed): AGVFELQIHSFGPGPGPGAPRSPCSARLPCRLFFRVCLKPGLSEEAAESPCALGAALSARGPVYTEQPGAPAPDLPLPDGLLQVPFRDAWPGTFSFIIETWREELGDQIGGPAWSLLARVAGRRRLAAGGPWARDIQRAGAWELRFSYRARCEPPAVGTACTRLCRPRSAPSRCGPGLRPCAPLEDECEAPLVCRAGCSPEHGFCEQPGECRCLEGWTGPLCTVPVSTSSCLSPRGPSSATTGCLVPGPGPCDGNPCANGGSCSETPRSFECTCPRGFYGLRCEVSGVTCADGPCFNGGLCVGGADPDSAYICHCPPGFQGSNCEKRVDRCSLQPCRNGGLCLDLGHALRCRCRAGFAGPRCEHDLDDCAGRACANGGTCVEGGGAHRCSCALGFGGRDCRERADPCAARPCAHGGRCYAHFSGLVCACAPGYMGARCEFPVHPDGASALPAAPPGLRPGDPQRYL
In words: Binding kinetic assay using Bio-layer interferometry (BLI). The settings on record: for binding mode to DLL3: peptides at 20, 4 and 0.8 μM, fit to 1:1 Langmuir binding model; for affinity: wider dose-response 10×KD to 0.1×KD. The procedure: Binding kinetic assays were performed using Bio-layer interferometry (BLI) technology. The recombinant DLL3 ectodomain (rhDLL3-Fc) was biotinylated using EZ-Link Sulfo-NHS-LC-LC-Biotin Kit according to the manufacturer's protocol (Pierce by Thermo Fisher Scientific). The recombinant protein was incubated with an excess of NHS-LC-LC Biotin ester, in a molar ratio of 1:3 (protein: biotin), at 25° C. for 90 min. The un-reacted biotin ester was removed by subsequent buffer exchange on 0.5 ml Zeba spin desalting columns 7K MWCO (Pierce by Thermo Fisher Scientific).

Setting [1] is: Table 4, ± values from three independent experiments, read-out: RT (residence time) (converted).
Where [2] appears, read: range over the seven peptides, read-out: residence time.
[3] abbreviates: Table 4, ± values from three independent experiments.

This note sets out measurements from patent publication US20250074943A1, “DLL3 BINDING PEPTIDES AND USES THEREOF” (AMGEN INC., priority 2021, published 2025).

The structures appear in SMILES notation. pKd: −log10 of the molar value. Like-named read-outs stand apart in the source and are kept apart here. Bridge positions count the residues as written; N and C are the ends. Peptide text beside a SMILES is read from it.

On to `CC(C)[C@H](NC(=O)[C@@H](NC(=O)[C@H](CCC(=O)O)NC(=O)[C@H](C)N)[C@@H](C)O)C(=O)N[C@@H](CCC(=O)O)C(=O)N[C@@H](Cc1ccccc1)C(=O)N[C@@H](Cc1ccc(O)cc1)C(=O)NCC(=O)N[C@H]1CSSC[C@@H](C(=O)N[C@H](C(=O)N[C@@H](Cc2c[nH]c3ccccc23)C(N)=O)[C@@H](C)O)NC(=O)[C@H]([C@@H](C)O)NC(=O)[C@H](Cc2ccc(O)cc2)NC(=O)[C@H](CCC(=O)O)NC(=O)[C@H](Cc2ccc(O)cc2)NC(=O)[C@H](C)NC(=O)[C@H](CC(=O)O)NC(=O)CNC(=O)[C@H]([C@@H](C)O)NC1=O` [PepSP1147] (H-AETVEFYGCTGDAYEYTCTW-NH2; disulfide 9-18; N-terminus assumed), for which the “binding mode to DLL3” value is listed as “dose-response saturable binding” and the affinity entry was “double-digit nM range”. Besides, the residence time under setting [1] is 1.09 min. Moreover, the residence time under setting [2] is 1 to 3 min.

With `CC(C)[C@@H]1NC(=O)CNC(=O)[C@H](CCC(=O)O)NC(=O)[C@H]([C@@H](C)O)NC(=O)[C@H](Cc2c[nH]c3ccccc23)NC(=O)[C@H](Cc2ccc(O)cc2)NC(=O)[C@@H](NC(=O)[C@@H](NC(=O)[C@H](Cc2c[nH]c3ccccc23)NC(=O)[C@H](Cc2ccccc2)NC(=O)[C@H](CCC(=O)O)NC(=O)[C@@H](NC(=O)[C@@H](NC(=O)[C@H](CCC(=O)O)NC(=O)[C@H](C)N)[C@@H](C)O)C(C)C)[C@@H](C)O)CSSC[C@@H](C(=O)N[C@@H](CCCNC(=N)N)C(=O)N[C@@H](Cc2c[nH]c3ccccc23)C(N)=O)NC(=O)CNC(=O)[C@H](CO)NC1=O` [PepSP1151] (H-AETVEFWTCYWTEGVSGCRW-NH2; disulfide 9-18), the “binding mode to DLL3” value was “dose-response saturable binding”. Under “Table 4, global fitting 1:1 Langmuir, koff vs kon ratio, ± values from three independent experiments”, the pKd is 6.90. In addition, the residence time under setting [1] is 2.78 min.

As to `CC(C)[C@@H]1NC(=O)[C@H]([C@@H](C)O)NC(=O)[C@H](CCC(=O)O)NC(=O)[C@H](CCC(=O)O)NC(=O)[C@H](Cc2ccc(O)cc2)NC(=O)[C@H](Cc2c[nH]c3ccccc23)NC(=O)[C@H](CC(=O)O)NC(=O)[C@@H](NC(=O)[C@H](CCCNC(=N)N)NC(=O)[C@H](Cc2c[nH]c3ccccc23)NC(=O)[C@H](Cc2ccc(O)cc2)NC(=O)[C@H](CCC(=O)O)NC(=O)[C@@H](NC(=O)[C@@H](NC(=O)[C@H](CCC(=O)O)NC(=O)[C@H](C)N)[C@@H](C)O)C(C)C)CSSC[C@@H](C(=O)NCC(=O)N[C@H](C(N)=O)[C@@H](C)O)NC(=O)[C@H](C)NC1=O` [PepSP1155] (H-AETVEYWRCDWYEETVACGT-NH2; disulfide 9-18), the “binding mode to DLL3” value is listed as “dose-response saturable binding”. Under setting [1], the residence time was 2.95 min.

Regarding `CC(C)[C@H](NC(=O)[C@@H](NC(=O)[C@H](CCC(=O)O)NC(=O)[C@H](C)N)[C@@H](C)O)C(=O)N[C@@H](CCC(=O)O)C(=O)N[C@@H](Cc1ccccc1)C(=O)N[C@@H](Cc1c[nH]c2ccccc12)C(=O)N[C@@H](CO)C(=O)N[C@H]1CSSC[C@@H](C(=O)NCC(=O)N[C@H](C(N)=O)[C@@H](C)O)NC(=O)[C@H](CO)NC(=O)[C@H](C(C)C)NC(=O)[C@H]([C@@H](C)O)NC(=O)[C@H](Cc2c[nH]c3ccccc23)NC(=O)[C@H](Cc2ccc(O)cc2)NC(=O)[C@H](CO)NC(=O)[C@H](Cc2ccc(O)cc2)NC(=O)[C@H](Cc2c[nH]cn2)NC1=O` [PepSP1157] (H-AETVEFWSCHYSYWTVSCGT-NH2; disulfide 9-18; N-terminus assumed), the “binding mode to DLL3” value is given as “dose-response saturable binding”. Moreover, the residence time under setting [1] was 1.48 min.

For the compound `CSCC[C@@H]1NC(=O)[C@H](CO)NC(=O)[C@@H](NC(=O)CNC(=O)[C@H](Cc2ccc(O)cc2)NC(=O)[C@H](Cc2ccccc2)NC(=O)[C@H](CCC(=O)O)NC(=O)[C@@H](NC(=O)[C@@H](NC(=O)[C@H](CCC(=O)O)NC(=O)[C@H](C)N)[C@@H](C)O)C(C)C)CSSC[C@@H](C(=O)N[C@@H](C)C(=O)N[C@@H](Cc2c[nH]c3ccccc23)C(N)=O)NC(=O)[C@H]([C@@H](C)O)NC(=O)[C@H](C(C)C)NC(=O)CNC(=O)[C@H](CCCNC(=N)N)NC(=O)[C@H](Cc2c[nH]c3ccccc23)NC(=O)[C@H](CC(=O)O)NC1=O` [PepSP1158] (H-AETVEFYGCSMDWRGVTCAW-NH2; disulfide 9-18), the “binding mode to DLL3” value was “dose-response saturable binding”. The residence time under setting [1] is 0.517 min.

On to `CC(C)C[C@@H]1NC(=O)[C@@H](NC(=O)[C@H](Cc2ccc(O)cc2)NC(=O)[C@H](CC(=O)O)NC(=O)[C@H](Cc2ccccc2)NC(=O)[C@H](CCC(=O)O)NC(=O)[C@@H](NC(=O)[C@@H](NC(=O)[C@H](CCC(=O)O)NC(=O)[C@H](C)N)[C@@H](C)O)C(C)C)CSSC[C@@H](C(=O)N[C@@H](CCC(N)=O)C(=O)N[C@@H](CC(N)=O)C(N)=O)NC(=O)CNC(=O)[C@H](Cc2c[nH]c3ccccc23)NC(=O)[C@H](C)NC(=O)[C@H](CC(=O)O)NC(=O)[C@@H]2CCCN2C(=O)[C@H](C)NC(=O)[C@H](Cc2c[nH]c3ccccc23)NC1=O` [PepSP1159] (H-AETVEFDYCLWAPDAWGCQN-NH2; disulfide 9-18; N-terminus assumed), for which the “binding mode to DLL3” value is listed as “dose-response saturable binding”. Besides, the residence time under setting [1] was 0.1 min.

Turning to `CC(C)[C@H](NC(=O)[C@@H]1CSSC[C@H](NC(=O)CNC(=O)[C@H](CCCNC(=N)N)NC(=O)[C@H](Cc2ccccc2)NC(=O)[C@H](CCC(=O)O)NC(=O)[C@@H](NC(=O)[C@@H](NC(=O)[C@H](CCC(=O)O)NC(=O)[C@H](C)N)[C@@H](C)O)C(C)C)C(=O)N[C@@H]([C@@H](C)O)C(=O)NCC(=O)N[C@@H](CC(N)=O)C(=O)N[C@@H](C(C)C)C(=O)N[C@@H](Cc2ccc(O)cc2)C(=O)N[C@@H](CC(=O)O)C(=O)N[C@@H](Cc2c[nH]c3ccccc23)C(=O)N[C@@H]([C@@H](C)O)C(=O)N1)C(=O)N[C@@H](Cc1c[nH]c2ccccc12)C(N)=O` [PepSP1160] (H-AETVEFRGCTGNVYDWTCVW-NH2; disulfide 9-18), the “binding mode to DLL3” value was “dose-response saturable binding”. Moreover, the residence time under setting [1] is 0.783 min.

Turning to `CC(C)[C@H](NC(=O)[C@@H](NC(=O)[C@H](CCC(=O)O)NC(=O)[C@H](C)N)[C@@H](C)O)C(=O)N[C@@H](CCC(=O)O)C(=O)N[C@@H](Cc1ccccc1)C(=O)N[C@@H](Cc1c[nH]c2ccccc12)C(=O)N[C@@H](CC(=O)O)C(=O)N[C@H]1CSSC[C@@H](C(=O)N[C@H](C(=O)N[C@@H](Cc2c[nH]c3ccccc23)C(N)=O)[C@@H](C)O)NC(=O)[C@H]([C@@H](C)O)NC(=O)[C@H](Cc2c[nH]c3ccccc23)NC(=O)[C@H](CC(=O)O)NC(=O)[C@H](CC(=O)O)NC(=O)[C@H]([C@@H](C)O)NC(=O)[C@H](CC(N)=O)NC(=O)CNC(=O)[C@H](Cc2c[nH]c3ccccc23)NC1=O` [PepSP1161] (H-AETVEFWDCWGNTDDWTCTW-NH2; disulfide 9-18; N-terminus assumed), the “binding mode to DLL3” value is “dose-response saturable binding” and the affinity entry is “double-digit nM range”. Besides, the “RT (residence time)” value under setting [3] turned out to be 87.8 ± 6 s. Further, under setting [1], the residence time was 1.46 min. Further, the residence time under setting [2] was in the range of 1 to 3 min.

For the compound `CC(C)[C@H](NC(=O)[C@@H](NC(=O)[C@H](CCC(=O)O)NC(=O)[C@H](C)N)[C@@H](C)O)C(=O)N[C@@H](CCC(=O)O)C(=O)N[C@@H](Cc1ccccc1)C(=O)N[C@@H](Cc1c[nH]c2ccccc12)C(=O)N[C@H](C(=O)N[C@H]1CSSC[C@@H](C(=O)N[C@@H](CO)C(=O)N[C@@H](Cc2c[nH]c3ccccc23)C(N)=O)NC(=O)[C@H]([C@@H](C)O)NC(=O)[C@H](Cc2c[nH]c3ccccc23)NC(=O)[C@H](CCC(=O)O)NC(=O)[C@H](CC(=O)O)NC(=O)[C@H](C)NC(=O)[C@H](CC(N)=O)NC(=O)CNC(=O)[C@H](Cc2c[nH]cn2)NC1=O)[C@@H](C)O` [PepSP1162] (H-AETVEFWTCHGNADEWTCSW-NH2; disulfide 9-18), the “binding mode to DLL3” value is “dose-response saturable binding”. Moreover, the residence time under setting [1] was 0.85 min.

For the compound `CC(C)C[C@H](NC(=O)[C@H](Cc1ccccc1)NC(=O)[C@H](CCC(=O)O)NC(=O)[C@@H](NC(=O)[C@@H](NC(=O)[C@H](CCC(=O)O)NC(=O)[C@H](C)N)[C@@H](C)O)C(C)C)C(=O)NCC(=O)N[C@H]1CSSC[C@@H](C(=O)N[C@H](C(=O)N[C@@H](Cc2c[nH]c3ccccc23)C(N)=O)C(C)C)NC(=O)[C@H]([C@@H](C)O)NC(=O)[C@H](Cc2c[nH]c3ccccc23)NC(=O)[C@H](CCC(=O)O)NC(=O)[C@H](CO)NC(=O)[C@H](CC(N)=O)NC(=O)[C@H](CC(=O)O)NC(=O)CNC(=O)[C@H](Cc2c[nH]cn2)NC1=O` [PepSP1163] (H-AETVEFLGCHGDNSEWTCVW-NH2; disulfide 9-18), the “binding mode to DLL3” value is reported as “dose-response saturable binding” and the affinity entry is “double-digit nM range”. Besides, under setting [3], the “RT (residence time)” value stood at 166.8 ± 19.5 s. Also, under setting [1], the residence time was 2.78 min. Moreover, the residence time under setting [2] lay within 1 to 3 min.

By residence time is commonly meant how long the partners stay bound on average. For orientation: pKd means −log10 of the Kd, conventionally taken in molar units.
